Measured values taken from patent US4272437A, “Antibacterial agents, and 4-thio azetidinone intermediates” (priority 1979, dated 1981).
≈ marks a conversion by molar mass, not a printed value. Read-outs that look alike come from different tables or passages of the source.

Experiments:
E. coli A-20341-1 = assay: MIC, tube dilution, Escherichia coli A20341-1; type: cell-based
Source text: (§1) Representative compounds of the present invention were subjected to in vitro antibiotic screening against a variety of microorganisms.

[1] = test system: Staph. aureus (Pen-Res) A-9606; assay: MIC, tube dilution, Staphylococcus aureus A9606 (Pen-Res); type: cell-based; settings: Staphylococcus aureus, Staph. aureus A9606 (Pen-Res); overnight 37° C.; read-out: Minimum Inhibitory Concentration (M.I.C.)
Source text: as §1

Pr. morganii A-15153 = assay: MIC, tube dilution, Proteus morganii A15153; type: cell-based; settings: Morganella morganii, A15153, Proteus morganii A15153; overnight 37° C.; read-out: Minimum Inhibitory Concentration (M.I.C.)
Source text: as §1

[2] = test system: Klebsiella species A20468; assay: MIC, tube dilution, Klebsiella species A20468; type: cell-based; settings: Klebsiella species (K. pneumoniae) A20468; overnight 37° C.; read-out: Minimum Inhibitory Concentration (M.I.C.)
Source text: as §1

E. coli A-15119 = assay: MIC, tube dilution, Escherichia coli A15119; type: cell-based; settings: Escherichia coli, A15119, E. coli A15119; overnight 37° C.; read-out: Minimum Inhibitory Concentration (M.I.C.)
Source text: as §1

[3] = test system: Staph. aureus (Meth-Res) A-15097; assay: MIC, tube dilution, Staphylococcus aureus A15097 (Meth-Res); type: cell-based; settings: Staphylococcus aureus, Staph. aureus A15097 (Meth-Res); overnight 37° C.; read-out: Minimum Inhibitory Concentration (M.I.C.)
Source text: as §1

K. pneumoniae A-15130 = assay: MIC, tube dilution, Klebsiella pneumoniae A15130; type: cell-based; settings: Klebsiella pneumoniae, A15130, K. pneumoniae A15130; overnight 37° C.; read-out: Minimum Inhibitory Concentration (M.I.C.)
Source text: as §1

Ser. marcescens A-20019 = assay: MIC, tube dilution, Serratia marcescens A20019; type: cell-based; settings: Serratia marcescens, A20019, Serratia marcescens A20019; overnight 37° C.; read-out: Minimum Inhibitory Concentration (M.I.C.)
Source text: as §1

Ent. cloacae A-9656 = assay: MIC, tube dilution, Enterobacter cloacae A9656; type: cell-based; settings: overnight 37° C., read-out: Minimum Inhibitory Concentration (M.I.C.)
Source text: as §1

[4] = test system: Staph. aureus A-9537 and 50% serum; assay: MIC, tube dilution, Staph. aureus A9537 + 50% serum; type: cell-based, Staphylococcus aureus; settings: Staphylococcus aureus, overnight 37° C., read-out: Minimum Inhibitory Concentration (M.I.C.)
Source text: as §1

Ps. aeruginosa A-9843A = assay: MIC, tube dilution, Pseudomonas aeruginosa A9843A; type: cell-based; settings: Pseudomonas aeruginosa, A9843A, read-out: Minimum Inhibitory Concentration (M.I.C.), Pseudomonas aeruginosa A9843A; overnight 37° C.
Source text: as §1

Str. faecalis A-20688 = assay: MIC, tube dilution, Streptococcus faecalis A20688; type: cell-based; settings: Enterococcus faecalis, A20688, Str. faecalis A20688; overnight 37° C.; read-out: Minimum Inhibitory Concentration (M.I.C.)
Source text: as §1

Ps. aeruginosa A-21213 = assay: MIC, tube dilution, Pseudomonas aeruginosa A21213; type: cell-based; settings: overnight 37° C., read-out: Minimum Inhibitory Concentration (M.I.C.)
Source text: as §1

Staph. aureus A-9537 = assay: MIC, tube dilution, Staphylococcus aureus A9537; type: cell-based; settings: Staphylococcus aureus, A9537, Staph. aureus A9537; overnight 37° C., Nutrient Broth; read-out: Minimum Inhibitory Concentration (M.I.C.)
Source text: as §1

Str. pneumoniae A-9585 = assay: MIC, tube dilution, Streptococcus pneumoniae A9585; type: cell-based; settings: Streptococcus pneumoniae, A9585, Str. pneumoniae A9585; overnight 37° C., Nutrient Broth; read-out: Minimum Inhibitory Concentration (M.I.C.)
Source text: as §1

Pr. mirabilis A-9900 = assay: MIC, tube dilution, Proteus mirabilis A9900; type: cell-based; settings: Proteus mirabilis, A9900, Proteus mirabilis A9900; overnight 37° C.; read-out: Minimum Inhibitory Concentration (M.I.C.)
Source text: as §1

Str. pyogenes A-9604 = assay: MIC, tube dilution, Streptococcus pyogenes A9604; type: cell-based; settings: Streptococcus pyogenes, A9604, Str. pyogenes A9604; overnight 37° C., Nutrient Broth; read-out: Minimum Inhibitory Concentration (M.I.C.)
Source text: as §1

Proteus rettgeri A21203 = assay: MIC, tube dilution, Proteus rettgeri A21203; type: cell-based; settings: Providencia rettgeri, overnight 37° C., read-out: Minimum Inhibitory Concentration (M.I.C.)
Source text: as §1

Ent. cloacae A-9659 = assay: MIC, tube dilution, Enterobacter cloacae A9659; type: cell-based; settings: Enterobacter cloacae, A9659, Enterobacter cloacae A9659; overnight 37° C.; read-out: Minimum Inhibitory Concentration (M.I.C.)
Source text: as §1

Proteus vulgaris A21559 = assay: MIC, tube dilution, Proteus vulgaris A21559; type: cell-based; settings: Proteus vulgaris, A21559, Proteus vulgaris A21559; overnight 37° C.; read-out: Minimum Inhibitory Concentration (M.I.C.)
Source text: as §1

[5] = Escherichia coli, A203411; E. coli A20341-1; overnight 37° C.; read-out: Minimum Inhibitory Concentration (M.I.C.)
[6] = Enterobacter cloacae, A9656, Enterobacter cloacae A9656
[7] = A21203, Proteus rettgeri A21203
[8] = Escherichia coli, A203411, E. coli A20341-1; overnight 37° C.; read-out: Minimum Inhibitory Concentration (M.I.C.)
[9] = Pseudomonas aeruginosa, A21213, Pseudomonas aeruginosa A21213

For `O=C(O)C1=C(Cn2cnnn2)SC2CC(=O)N12` (centres unmarked) [Example 76, Sodium 2-(1H-Tetrazolemethyl)-penem-3-carboxylate], the MIC (E. coli A-20341-1; [5]) was greater than 125 µg/mL, the MIC [1] was 4 µg/mL and the MIC (Pr. morganii A-15153) was 16 µg/mL. The MIC [2] was greater than 125 µg/mL, the MIC (E. coli A-15119) was 4 µg/mL and the MIC [3] was 8 µg/mL. The MIC (K. pneumoniae A-15130) was 63 µg/mL, the MIC (Ser. marcescens A-20019) was 16 µg/mL and the MIC (Ent. cloacae A-9656; [6]) was 16 µg/mL. For the same compound, the MIC [4] was greater than 63 µg/mL, the MIC (Ps. aeruginosa A-9843A) was greater than 125 µg/mL and the MIC (Str. faecalis A-20688) was 125 µg/mL. The MIC (Ps. aeruginosa A-21213; Pseudomonas aeruginosa A21213) was greater than 125 µg/mL, the MIC (Staph. aureus A-9537) was 1 µg/mL and the MIC (Str. pneumoniae A-9585) was 0.03 µg/mL. For the same compound, the MIC (Pr. mirabilis A-9900) was 8 µg/mL, the MIC (Str. pyogenes A-9604) was 0.5 µg/mL and the MIC (Proteus rettgeri A21203; [7]) was 8 µg/mL. The MIC (Ent. cloacae A-9659) was 16 µg/mL and the MIC (Proteus vulgaris A21559) was 8 µg/mL.
With `Cc1cc(C)n(CC2=C(C(=O)O)N3C(=O)CC3S2)n1` (centres unmarked) [Example 77, Sodium 2-(3,5-Dimethyl-1H-pyrazolemethyl)-penem-3-carboxylate] the MIC (E. coli A-20341-1; [5]) was greater than 125 µg/mL, the MIC [1] was 4 µg/mL and the MIC (Pr. morganii A-15153) was 16 µg/mL. For the same compound, the MIC [2] was greater than 125 µg/mL, the MIC (E. coli A-15119) was 4 µg/mL and the MIC [3] was 16 µg/mL. The MIC (K. pneumoniae A-15130) was greater than 125 µg/mL, the MIC (Ser. marcescens A-20019) was greater than 125 µg/mL and the MIC (Ent. cloacae A-9656; Enterobacter cloacae A9656) was 125 µg/mL. It also gave an MIC [4] greater than 63 µg/mL, an MIC (Ps. aeruginosa A-9843A) greater than 125 µg/mL and an MIC (Str. faecalis A-20688) of 125 µg/mL. It also gave an MIC (Ps. aeruginosa A-21213; Pseudomonas aeruginosa A21213) greater than 125 µg/mL, an MIC (Staph. aureus A-9537) of 0.13 µg/mL and an MIC (Str. pneumoniae A-9585) of 0.03 µg/mL. It also gave an MIC (Pr. mirabilis A-9900) of 2 µg/mL, an MIC (Str. pyogenes A-9604) of 0.5 µg/mL and an MIC (Proteus rettgeri A21203; Proteus rettgeri A21203) greater than 125 µg/mL. For the same compound, the MIC (Ent. cloacae A-9659) was greater than 125 µg/mL and the MIC (Proteus vulgaris A21559) was 63 µg/mL.
`NCC(=O)OCC1=C(C(=O)O)N2C(=O)CC2S1` (centres unmarked) [Example 81, 2-Aminoacetoxymethyl-penem-3-carboxylic Acid] was tested, and the MIC (E. coli A-20341-1; [8]) was 32 µg/mL (≈ 124 µM), the MIC [1] was 2 µg/mL (≈ 7.74 µM) and the MIC (Pr. morganii A-15153) was 8 µg/mL (≈ 31 µM). It also gave an MIC [2] greater than 63 µg/mL, an MIC (E. coli A-15119) of 2 µg/mL (≈ 7.74 µM) and an MIC [3] of 8 µg/mL (≈ 31 µM). The MIC (K. pneumoniae A-15130) was 8 µg/mL (≈ 31 µM), the MIC (Ser. marcescens A-20019) was 8 µg/mL (≈ 31 µM) and the MIC (Ent. cloacae A-9656; [6]) was 8 µg/mL (≈ 31 µM). It also gave an MIC [4] greater than 32 µg/mL, an MIC (Ps. aeruginosa A-9843A) of 63 µg/mL (≈ 244 µM) and an MIC (Str. faecalis A-20688) of 63 µg/mL (≈ 244 µM). The MIC (Ps. aeruginosa A-21213; [9]) was greater than 63 µg/mL, the MIC (Staph. aureus A-9537) was 32 µg/mL (≈ 124 µM) and the MIC (Str. pneumoniae A-9585) was 2 µg/mL (≈ 7.74 µM). It also gave an MIC (Pr. mirabilis A-9900) of 4 µg/mL (≈ 15.5 µM), an MIC (Str. pyogenes A-9604) of 16 µg/mL (≈ 62 µM) and an MIC (Proteus rettgeri A21203; [7]) of 8 µg/mL (≈ 31 µM). The MIC (Ent. cloacae A-9659) was 8 µg/mL (≈ 31 µM) and the MIC (Proteus vulgaris A21559) was 16 µg/mL (≈ 62 µM).
With `NCc1ccc(CC2=C(C(=O)O)N3C(=O)CC3S2)cc1` (centres unmarked) [Example 85, 2-(p-Aminomethylbenzyl)penem-3-carboxylic Acid] the MIC (E. coli A-20341-1; [8]) was 63 µg/mL (≈ 217 µM), the MIC [1] was 16 µg/mL (≈ 55.1 µM) and the MIC (Pr. morganii A-15153) was 4 µg/mL (≈ 13.8 µM). It also gave an MIC [2] greater than 63 µg/mL, an MIC (E. coli A-15119) of 4 µg/mL (≈ 13.8 µM) and an MIC [3] greater than 63 µg/mL. The MIC (K. pneumoniae A-15130) was 32 µg/mL (≈ 110 µM), the MIC (Ser. marcescens A-20019) was 4 µg/mL (≈ 13.8 µM) and the MIC (Ent. cloacae A-9656; [6]) was 8 µg/mL (≈ 27.6 µM). For the same compound, the MIC [4] was 1 µg/mL, the MIC (Ps. aeruginosa A-9843A) was 8 µg/mL (≈ 27.6 µM) and the MIC (Str. faecalis A-20688) was 16 µg/mL (≈ 55.1 µM). For the same compound, the MIC (Ps. aeruginosa A-21213; [9]) was 63 µg/mL (≈ 217 µM), the MIC (Staph. aureus A-9537) was 0.06 µg/mL (≈ 0.207 µM) and the MIC (Str. pneumoniae A-9585) was 0.06 µg/mL (≈ 0.207 µM). The MIC (Pr. mirabilis A-9900) was 4 µg/mL (≈ 13.8 µM), the MIC (Str. pyogenes A-9604) was 0.06 µg/mL (≈ 0.207 µM) and the MIC (Proteus rettgeri A21203; [7]) was 4 µg/mL (≈ 13.8 µM). The MIC (Ent. cloacae A-9659) was 8 µg/mL (≈ 27.6 µM) and the MIC (Proteus vulgaris A21559) was greater than 63 µg/mL.
